Laboratory results reported in ChEMBL document CHEMBL4359904, “Structural tuning of acridones for developing anticancer agents targeting dihydrofolate reductase” (Bioorg Med Chem Lett, 2019).
Activity calls are given as the source filed them. The calls are words filed in the database; no cut-off is given here.

Tests used:
CCRF-CEM [1] = assay: Growth inhibition of human CCRF-CEM cells incubated for 48 hrs by sulforhodamine B assay; format: functional
RPMI-8226 [2] = assay: Growth inhibition of human RPMI8226 cells incubated for 48 hrs by sulforhodamine B assay; format: functional; settings: RPMI-8226, 48 h
SR [3] = assay: Growth inhibition of human SR cells incubated for 48 hrs by sulforhodamine B assay; format: functional
HOP-62 = assay: Growth inhibition of human HOP62 cells incubated for 48 hrs by sulforhodamine B assay; format: functional; settings: HOP-62, 48 h
NCI-H23 = assay: Growth inhibition of human NCI-H23 cells incubated for 48 hrs by sulforhodamine B assay; format: functional; settings: NCI-H23, 48 h
NCI-H460 = assay: Growth inhibition of human NCI-H460 cells incubated for 48 hrs by sulforhodamine B assay; format: functional; settings: NCI-H460, 48 h
HCC 2998 = assay: Growth inhibition of human HCC2998 cells incubated for 48 hrs by sulforhodamine B assay; format: functional; settings: HCC 2998, 48 h
HCT-116 = assay: Growth inhibition of human HCT116 cells incubated for 48 hrs by sulforhodamine B assay; format: functional; settings: HCT-116, 48 h
SNB-75 = assay: Growth inhibition of human SNB75 cells incubated for 48 hrs by sulforhodamine B assay; format: functional; settings: SNB-75, 48 h
M14 = assay: Growth inhibition of human M14 cells incubated for 48 hrs by sulforhodamine B assay; format: functional; settings: M14, 48 h
OVCAR-3 = assay: Growth inhibition of human OVCAR3 cells incubated for 48 hrs by sulforhodamine B assay; format: functional; settings: OVCAR-3, 48 h
OVCAR-5 = assay: Growth inhibition of human OVCAR5 cells incubated for 48 hrs by sulforhodamine B assay; format: functional; settings: OVCAR-5, 48 h
786-0 = assay: Growth inhibition of human 786-0 cells incubated for 48 hrs by sulforhodamine B assay; format: functional; settings: 786-0, 48 h
A498 = assay: Growth inhibition of human A498 cells incubated for 48 hrs by sulforhodamine B assay; format: functional; settings: A498, 48 h
RXF 393 = assay: Growth inhibition of human RXF393 cells incubated for 48 hrs by sulforhodamine B assay; format: functional; settings: RXF 393, 48 h
PC-3 = assay: Growth inhibition of human PC3 cells incubated for 48 hrs by sulforhodamine B assay; format: functional; settings: PC-3, 48 h
DU-145 = assay: Growth inhibition of human DU145 cells incubated for 48 hrs by sulforhodamine B assay; format: functional; settings: DU-145, 48 h
MDA-MB-231 = assay: Growth inhibition of human MDA-MB-231/ATCC cells incubated for 48 hrs by sulforhodamine B assay; format: functional; settings: MDA-MB-231, 48 h
T47D = assay: Growth inhibition of human T47D cells incubated for 48 hrs by sulforhodamine B assay; format: functional
CCRF-CEM [4] = assay: Growth inhibition of human CCRF-CEM cells at 10^-5 M incubated for 48 hrs by sulforhodamine B assay relative to control; format: functional; settings: read-out: GI
K562 = assay: Growth inhibition of human K562 cells at 10^-5 M incubated for 48 hrs by sulforhodamine B assay relative to control; format: functional; settings: K562, 48 h, read-out: GI
RPMI-8226 [5] = assay: Growth inhibition of human RPMI8226 cells at 10^-5 M incubated for 48 hrs by sulforhodamine B assay relative to control; format: functional; settings: RPMI-8226, 48 h, read-out: GI
SR [6] = assay: Growth inhibition of human SR cells at 10^-5 M incubated for 48 hrs by sulforhodamine B assay relative to control; format: functional; settings: read-out: GI
UO-31 = assay: Growth inhibition of human UO31 cells at 10^-5 M incubated for 48 hrs by sulforhodamine B assay relative to control; format: functional; settings: UO-31, 48 h, read-out: GI
MDA-MB-468 = assay: Growth inhibition of human MDA-MB-468 cells at 10^-5 M incubated for 48 hrs by sulforhodamine B assay relative to control; format: functional; settings: MDA-MB-468, 48 h, read-out: GI
[7] = tested on: Panel NCI-60 (60 carcinoma cell lines); assay: Growth inhibition of human NCI60 cells at incubated for 48 hrs by sulforhodamine B assay; format: functional
C6 [8] = assay: Antiproliferative activity against rat C6 cells assessed as decrease in cell viability measured after 48 hrs by MTT assay; format: functional, cell-based
C6 [9] = assay: Cell cycle arrest in rat C6 cells assessed as increase in cell population at sub G0 phase measured after 24 hrs by propidium iodide staining based flow cytometry analysis; format: functional
Dihydrofolate reductase = biological target: T1, Dihydrofolate reductase (Homo sapiens, UniProt P00374); assay: Inhibition of human dihydrofolate reductase using dihydrofolic acid as substrate preincubated for 1 hr in presence of NADPH followed by substrate addition by enzyme immunoassay
T1 sequence (P00374 whole entry): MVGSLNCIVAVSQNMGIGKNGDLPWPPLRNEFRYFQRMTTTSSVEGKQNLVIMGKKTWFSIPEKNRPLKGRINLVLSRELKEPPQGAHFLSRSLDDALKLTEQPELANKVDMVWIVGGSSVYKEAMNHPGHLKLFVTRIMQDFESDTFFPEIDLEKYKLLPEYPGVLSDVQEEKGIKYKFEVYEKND

[10] = biological target: T2, Dihydrofolate reductase (Homo sapiens) (UniProt P00374); assay: Inhibition of human dihydrofolate reductase assessed as association constant by UV-Vis spectra based Benesi Hilebrand equation analysis
T2 sequence (whole entry): T1 sequence (P00374 whole entry)

C6 [11] = assay: Cell cycle arrest in rat C6 cells assessed as cell population at G0/G1 phase measured after 24 hrs by propidium iodide staining based flow cytometry analysis; format: functional
[12] = biological target: T2, Dihydrofolate reductase (Homo sapiens); assay: Binding affinity to human dihydrofolate reductase at 5 uM assessed as decrease in absorption band by UV-visible spectroscopic analysis
[13] = read-out: LC50 (the source's name)
[14] = read-out: pLC50 (the source's name) (converted)

## O=C(OC[C@@H]1CO1)c1cccc2c(=O)c3ccccc3[nH]c12
CCRF-CEM [1]; read-out: GI50
  GI50: 0.77 µM
CCRF-CEM [1]; [13]
  CC50: > 100 µM
CCRF-CEM [1]; [14]
  CC50: > 100 µM
CCRF-CEM [1]; read-out: pTGI (converted)
  TGI: 21.9 µM
RPMI-8226 [2]
  GI50: 1.95 µM
RPMI-8226 [2]; [14]
  CC50: > 100 µM
RPMI-8226 [2]; read-out: pTGI (converted)
  TGI: 6.61 µM
SR [3]; read-out: GI50
  GI50: 0.3 µM
SR [3]; [13]
  CC50: > 100 µM
SR [3]; read-out: pGI50 (converted)
  GI50: 0.302 µM
SR [3]; [14]
  CC50: > 100 µM
SR [3]; read-out: pTGI (converted)
  TGI: 4.37 µM
HOP-62
  GI50: 2.14 µM
HOP-62; [14]
  CC50: > 100 µM
HOP-62; read-out: pTGI (converted)
  TGI: 5.89 µM
NCI-H23
  GI50: 1.41 µM
NCI-H23; [14]
  CC50: > 100 µM
NCI-H23; read-out: pTGI (converted)
  TGI: 4.47 µM
NCI-H460
  GI50: 1.7 µM
NCI-H460; [14]
  CC50: 51.3 µM
NCI-H460; read-out: pTGI (converted)
  TGI: 4.47 µM
HCC 2998
  GI50: 1.51 µM
HCC 2998; [14]
  CC50: 7.76 µM
HCC 2998; read-out: pTGI (converted)
  TGI: 3.47 µM
HCT-116
  GI50: 1.12 µM
HCT-116; [14]
  CC50: > 100 µM
HCT-116; read-out: pTGI (converted)
  TGI: 8.71 µM
SNB-75
  GI50: 1.51 µM
SNB-75; [14]
  CC50: 7.94 µM
SNB-75; read-out: pTGI (converted)
  TGI: 3.47 µM
M14
  GI50: 1.66 µM
M14; [14]
  CC50: 9.12 µM
M14; read-out: pTGI (converted)
  TGI: 3.89 µM
OVCAR-3
  GI50: 2.29 µM
OVCAR-3; [14]
  CC50: 51.3 µM
OVCAR-3; read-out: pTGI (converted)
  TGI: 7.24 µM
OVCAR-5
  GI50: 2.45 µM
OVCAR-5; [14]
  CC50: > 100 µM
OVCAR-5; read-out: pTGI (converted)
  TGI: 6.46 µM
786-0
  GI50: 2.75 µM
786-0; [14]
  CC50: > 100 µM
786-0; read-out: pTGI (converted)
  TGI: 8.13 µM
A498
  GI50: 2.63 µM
A498; [14]
  CC50: 27.5 µM
A498; read-out: pTGI (converted)
  TGI: 6.61 µM
RXF 393
  GI50: 1.38 µM
RXF 393; [14]
  CC50: 5.75 µM
RXF 393; read-out: pTGI (converted)
  TGI: 2.82 µM
PC-3
  GI50: 2.04 µM
PC-3; [14]
  CC50: > 100 µM
PC-3; read-out: pTGI (converted)
  TGI: 8.32 µM
DU-145
  GI50: 1.35 µM
DU-145; [14]
  CC50: > 100 µM
DU-145; read-out: pTGI (converted)
  TGI: 5.89 µM
MDA-MB-231
  GI50: 2.09 µM
MDA-MB-231; [14]
  CC50: > 100 µM
MDA-MB-231; read-out: pTGI (converted)
  TGI: 5.25 µM
T47D
  GI50: 2.51 µM
T47D; [14]
  CC50: > 100 µM
T47D; read-out: pTGI (converted)
  TGI: 8.32 µM
CCRF-CEM [4]
  inhibition of growth at 10 µM: 93%
K562
  inhibition of growth at 10 µM: 95%
RPMI-8226 [5]
  inhibition of growth at 10 µM: 100%
SR [6]
  inhibition of growth at 10 µM: 90%
UO-31
  inhibition of growth at 10 µM: 100%
MDA-MB-468
  inhibition of growth at 10 µM: 100%
[7]
  GI50: 0.3 µM
  TGI: 1.2 µM
[7]; [13]
  CC50: 38 µM
C6 [8]
  inhibition: Dose-dependent effect
C6 [8]; C6, 48 h
  IC50: 0.25 to 1.5 µM
C6 [9]
  Activity: Active
Dihydrofolate reductase
  IC50: 0.01 µM
[10]
  Ka: 1.6 ×10⁴ /M
C6 [11]
  Activity: inactive
[12]
  Activity: Active
